Our source for the remaining activity and residual activity values is paper PMC6458995, “MAP4K4 Inhibition Promotes Survival of Human Stem Cell-Derived Cardiomyocytes and Reduces Infarct Size In Vivo” (Cell Stem Cell, 2019).

The structures appear in SMILES notation.

Common to all, as to experiment: Dundee kinase panel
Format in all cases: biochemical
Common to all, as to details: for remaining activity at 1 µM: read-out: residual activity

For assay [1], the target named is T1, HER4 (Homo sapiens, UniProt Q15303).
T1 construct: lines 1-140) and Reaction Biology
The method, then:
(§1) Compounds were screened at 1 μM. For key hits, pIC50 values were then determined by HTRF as above. […] Stability in mouse and human liver microsomes was determined by Cyprotex.

The target of assay [2] is T2, PAK2 (Homo sapiens, UniProt Q13177).
T2 construct: lines 1-140) and Reaction Biology
The protocol:
as §1

Assay [3] has as its target T3, EPH-B1 (Homo sapiens, UniProt P54762).
T3 construct: lines 1-140) and Reaction Biology
T3 sequence (P54762 18-984): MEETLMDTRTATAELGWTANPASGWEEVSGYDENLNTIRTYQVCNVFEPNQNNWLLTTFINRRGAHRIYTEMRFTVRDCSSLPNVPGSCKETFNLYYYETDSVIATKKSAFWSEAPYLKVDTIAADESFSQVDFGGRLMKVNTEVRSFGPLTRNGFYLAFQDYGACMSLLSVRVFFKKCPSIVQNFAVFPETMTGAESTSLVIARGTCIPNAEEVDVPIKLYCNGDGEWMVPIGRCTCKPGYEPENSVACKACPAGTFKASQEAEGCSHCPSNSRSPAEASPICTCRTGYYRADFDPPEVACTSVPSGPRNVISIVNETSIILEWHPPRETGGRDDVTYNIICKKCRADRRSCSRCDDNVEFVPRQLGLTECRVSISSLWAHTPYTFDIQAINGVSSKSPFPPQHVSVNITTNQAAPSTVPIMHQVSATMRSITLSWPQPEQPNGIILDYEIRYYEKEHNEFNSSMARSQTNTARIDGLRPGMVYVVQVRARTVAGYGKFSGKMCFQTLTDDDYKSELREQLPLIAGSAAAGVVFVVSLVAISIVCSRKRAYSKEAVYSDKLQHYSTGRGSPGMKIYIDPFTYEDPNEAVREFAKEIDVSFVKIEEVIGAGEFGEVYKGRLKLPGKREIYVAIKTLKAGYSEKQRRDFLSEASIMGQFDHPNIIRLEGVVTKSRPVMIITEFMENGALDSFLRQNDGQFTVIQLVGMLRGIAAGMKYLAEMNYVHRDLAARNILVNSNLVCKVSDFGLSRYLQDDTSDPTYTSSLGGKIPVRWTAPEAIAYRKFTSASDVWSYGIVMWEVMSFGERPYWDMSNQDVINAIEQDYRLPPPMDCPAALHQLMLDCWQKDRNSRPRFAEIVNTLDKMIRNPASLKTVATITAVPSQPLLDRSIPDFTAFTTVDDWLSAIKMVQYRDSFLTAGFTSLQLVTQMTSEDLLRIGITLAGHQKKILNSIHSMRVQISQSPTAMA
The protocol: as §1

In assay [4] the target is T4, TTBK2 (Homo sapiens, UniProt Q6IQ55).
T4 construct: lines 1-140) and Reaction Biology
The method, then:
as §1

Assay [5] addresses T5, ROCK 2 (Homo sapiens, UniProt O75116).
T5 construct: lines 1-140) and Reaction Biology
The protocol: as §1

Assay [6] addresses T6, TBK1 (Homo sapiens, UniProt Q9UHD2).
T6 construct: lines 1-140) and Reaction Biology
T6 sequence (Q9UHD2 1-729): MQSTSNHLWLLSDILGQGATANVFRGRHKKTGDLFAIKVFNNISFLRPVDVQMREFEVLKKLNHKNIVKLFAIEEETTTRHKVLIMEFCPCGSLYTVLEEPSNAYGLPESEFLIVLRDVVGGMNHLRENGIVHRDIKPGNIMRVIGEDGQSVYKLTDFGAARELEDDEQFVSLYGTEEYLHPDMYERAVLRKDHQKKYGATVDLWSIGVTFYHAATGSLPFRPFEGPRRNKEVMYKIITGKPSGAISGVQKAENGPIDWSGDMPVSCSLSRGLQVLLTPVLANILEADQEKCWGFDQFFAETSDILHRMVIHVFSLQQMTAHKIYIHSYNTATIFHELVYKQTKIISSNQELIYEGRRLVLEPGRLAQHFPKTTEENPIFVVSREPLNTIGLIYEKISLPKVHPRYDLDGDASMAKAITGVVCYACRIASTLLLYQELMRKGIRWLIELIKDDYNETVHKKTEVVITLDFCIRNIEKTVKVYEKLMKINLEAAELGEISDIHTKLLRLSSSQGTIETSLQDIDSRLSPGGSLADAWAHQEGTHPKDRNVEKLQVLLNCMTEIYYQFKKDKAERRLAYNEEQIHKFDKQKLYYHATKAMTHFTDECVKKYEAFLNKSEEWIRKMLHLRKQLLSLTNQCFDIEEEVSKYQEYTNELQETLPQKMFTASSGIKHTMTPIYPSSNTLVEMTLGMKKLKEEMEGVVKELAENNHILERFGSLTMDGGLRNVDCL
The protocol: as §1

Assay [7] deals with T7, PKCz (Homo sapiens, UniProt Q05513).
T7 construct: lines 1-140) and Reaction Biology
T7 sequence (Q05513 1-592): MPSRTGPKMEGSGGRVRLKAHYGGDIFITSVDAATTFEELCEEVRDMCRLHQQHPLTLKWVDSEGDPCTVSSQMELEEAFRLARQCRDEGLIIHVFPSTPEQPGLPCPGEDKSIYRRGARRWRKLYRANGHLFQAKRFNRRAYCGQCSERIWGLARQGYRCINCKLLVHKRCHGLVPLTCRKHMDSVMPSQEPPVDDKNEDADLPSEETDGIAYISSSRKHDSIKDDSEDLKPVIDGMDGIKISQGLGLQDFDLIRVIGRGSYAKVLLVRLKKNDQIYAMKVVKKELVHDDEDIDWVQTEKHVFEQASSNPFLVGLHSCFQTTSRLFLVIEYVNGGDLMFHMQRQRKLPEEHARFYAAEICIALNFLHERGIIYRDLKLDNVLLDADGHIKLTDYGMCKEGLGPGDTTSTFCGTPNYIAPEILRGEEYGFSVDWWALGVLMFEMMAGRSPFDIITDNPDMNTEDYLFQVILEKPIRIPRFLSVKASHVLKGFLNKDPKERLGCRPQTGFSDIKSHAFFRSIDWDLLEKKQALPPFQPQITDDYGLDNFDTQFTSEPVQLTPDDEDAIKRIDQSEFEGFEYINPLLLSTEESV
The protocol:
as §1

T2 sequence (Q13177 whole entry): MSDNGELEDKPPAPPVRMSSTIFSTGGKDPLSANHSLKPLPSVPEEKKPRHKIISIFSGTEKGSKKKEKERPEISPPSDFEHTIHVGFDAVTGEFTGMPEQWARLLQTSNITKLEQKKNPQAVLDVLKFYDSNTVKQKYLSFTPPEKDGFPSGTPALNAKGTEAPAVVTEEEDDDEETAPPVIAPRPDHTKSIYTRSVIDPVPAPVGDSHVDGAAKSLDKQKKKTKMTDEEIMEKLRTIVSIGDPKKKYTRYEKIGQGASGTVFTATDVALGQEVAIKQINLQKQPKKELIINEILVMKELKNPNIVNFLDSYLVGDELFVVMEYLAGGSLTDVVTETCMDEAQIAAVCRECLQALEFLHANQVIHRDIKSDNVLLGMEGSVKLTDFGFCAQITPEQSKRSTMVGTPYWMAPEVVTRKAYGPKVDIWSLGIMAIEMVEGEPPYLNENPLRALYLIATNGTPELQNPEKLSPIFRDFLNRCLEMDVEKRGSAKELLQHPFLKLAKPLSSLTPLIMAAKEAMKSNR
T4 sequence (Q6IQ55 whole entry): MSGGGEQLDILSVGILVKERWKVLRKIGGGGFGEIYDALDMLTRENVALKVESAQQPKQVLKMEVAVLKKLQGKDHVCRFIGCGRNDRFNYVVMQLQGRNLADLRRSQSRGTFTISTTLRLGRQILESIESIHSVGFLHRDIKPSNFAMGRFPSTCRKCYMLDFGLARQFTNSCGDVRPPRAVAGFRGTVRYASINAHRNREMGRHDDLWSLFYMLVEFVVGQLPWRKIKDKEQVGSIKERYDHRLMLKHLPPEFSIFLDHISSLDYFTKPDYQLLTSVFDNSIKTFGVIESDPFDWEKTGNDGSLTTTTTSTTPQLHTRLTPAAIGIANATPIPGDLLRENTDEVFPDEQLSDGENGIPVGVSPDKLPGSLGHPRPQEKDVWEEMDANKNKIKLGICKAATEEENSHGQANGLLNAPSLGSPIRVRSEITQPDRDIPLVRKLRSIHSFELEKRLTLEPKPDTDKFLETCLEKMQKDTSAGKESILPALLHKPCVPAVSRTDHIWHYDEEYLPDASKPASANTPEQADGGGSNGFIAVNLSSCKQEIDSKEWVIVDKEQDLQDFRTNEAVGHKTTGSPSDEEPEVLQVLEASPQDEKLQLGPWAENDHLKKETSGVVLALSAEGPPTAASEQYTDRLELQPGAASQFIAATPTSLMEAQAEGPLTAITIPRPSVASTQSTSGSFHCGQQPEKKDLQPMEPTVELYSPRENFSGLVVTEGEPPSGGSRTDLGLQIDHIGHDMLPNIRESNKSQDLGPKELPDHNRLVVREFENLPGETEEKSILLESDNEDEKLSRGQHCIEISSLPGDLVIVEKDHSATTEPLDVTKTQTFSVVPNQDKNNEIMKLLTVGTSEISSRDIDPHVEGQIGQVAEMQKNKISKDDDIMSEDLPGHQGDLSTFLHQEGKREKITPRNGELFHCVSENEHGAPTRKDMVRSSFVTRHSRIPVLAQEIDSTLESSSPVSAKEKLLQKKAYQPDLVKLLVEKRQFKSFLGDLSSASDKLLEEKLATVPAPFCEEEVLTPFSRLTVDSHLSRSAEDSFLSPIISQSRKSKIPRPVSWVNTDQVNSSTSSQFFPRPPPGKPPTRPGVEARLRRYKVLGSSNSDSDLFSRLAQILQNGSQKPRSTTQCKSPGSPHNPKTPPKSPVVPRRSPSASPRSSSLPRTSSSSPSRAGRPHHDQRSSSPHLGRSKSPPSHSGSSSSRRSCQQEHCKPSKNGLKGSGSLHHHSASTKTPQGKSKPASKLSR
T5 sequence (O75116 whole entry): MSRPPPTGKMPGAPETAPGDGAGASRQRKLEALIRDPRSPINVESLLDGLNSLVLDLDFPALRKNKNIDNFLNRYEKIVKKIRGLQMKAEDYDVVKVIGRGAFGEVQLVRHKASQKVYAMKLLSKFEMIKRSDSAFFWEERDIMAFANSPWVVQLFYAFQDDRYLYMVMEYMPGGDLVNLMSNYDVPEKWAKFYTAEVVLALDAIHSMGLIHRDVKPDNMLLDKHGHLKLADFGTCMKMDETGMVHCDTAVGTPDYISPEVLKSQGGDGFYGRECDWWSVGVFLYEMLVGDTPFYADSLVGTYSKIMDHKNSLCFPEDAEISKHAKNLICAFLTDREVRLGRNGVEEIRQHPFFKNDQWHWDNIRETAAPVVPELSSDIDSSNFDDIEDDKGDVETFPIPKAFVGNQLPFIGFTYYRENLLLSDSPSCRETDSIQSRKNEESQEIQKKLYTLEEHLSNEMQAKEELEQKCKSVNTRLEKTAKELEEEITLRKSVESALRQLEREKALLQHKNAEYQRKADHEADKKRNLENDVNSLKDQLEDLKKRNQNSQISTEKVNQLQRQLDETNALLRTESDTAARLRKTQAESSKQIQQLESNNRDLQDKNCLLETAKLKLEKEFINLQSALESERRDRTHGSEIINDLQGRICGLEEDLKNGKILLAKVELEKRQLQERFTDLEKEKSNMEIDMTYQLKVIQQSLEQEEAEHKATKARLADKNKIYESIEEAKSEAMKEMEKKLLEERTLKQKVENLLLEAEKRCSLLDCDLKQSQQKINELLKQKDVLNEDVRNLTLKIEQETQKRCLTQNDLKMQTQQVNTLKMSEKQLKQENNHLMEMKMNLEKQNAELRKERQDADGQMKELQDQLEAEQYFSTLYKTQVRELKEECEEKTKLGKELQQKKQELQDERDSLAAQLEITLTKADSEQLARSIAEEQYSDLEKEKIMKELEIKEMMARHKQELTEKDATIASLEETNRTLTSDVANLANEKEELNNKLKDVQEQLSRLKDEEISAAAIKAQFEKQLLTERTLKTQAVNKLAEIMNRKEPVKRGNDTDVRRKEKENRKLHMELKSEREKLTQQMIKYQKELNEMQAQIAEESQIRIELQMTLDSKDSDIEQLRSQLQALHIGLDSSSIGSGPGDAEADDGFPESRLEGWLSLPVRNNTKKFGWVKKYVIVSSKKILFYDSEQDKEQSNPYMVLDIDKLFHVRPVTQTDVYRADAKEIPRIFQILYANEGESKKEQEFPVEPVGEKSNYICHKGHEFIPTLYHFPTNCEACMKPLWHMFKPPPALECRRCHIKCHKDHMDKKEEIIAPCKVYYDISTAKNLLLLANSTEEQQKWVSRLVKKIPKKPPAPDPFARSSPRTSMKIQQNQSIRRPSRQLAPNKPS
T1 sequence (Q15303 26-1308): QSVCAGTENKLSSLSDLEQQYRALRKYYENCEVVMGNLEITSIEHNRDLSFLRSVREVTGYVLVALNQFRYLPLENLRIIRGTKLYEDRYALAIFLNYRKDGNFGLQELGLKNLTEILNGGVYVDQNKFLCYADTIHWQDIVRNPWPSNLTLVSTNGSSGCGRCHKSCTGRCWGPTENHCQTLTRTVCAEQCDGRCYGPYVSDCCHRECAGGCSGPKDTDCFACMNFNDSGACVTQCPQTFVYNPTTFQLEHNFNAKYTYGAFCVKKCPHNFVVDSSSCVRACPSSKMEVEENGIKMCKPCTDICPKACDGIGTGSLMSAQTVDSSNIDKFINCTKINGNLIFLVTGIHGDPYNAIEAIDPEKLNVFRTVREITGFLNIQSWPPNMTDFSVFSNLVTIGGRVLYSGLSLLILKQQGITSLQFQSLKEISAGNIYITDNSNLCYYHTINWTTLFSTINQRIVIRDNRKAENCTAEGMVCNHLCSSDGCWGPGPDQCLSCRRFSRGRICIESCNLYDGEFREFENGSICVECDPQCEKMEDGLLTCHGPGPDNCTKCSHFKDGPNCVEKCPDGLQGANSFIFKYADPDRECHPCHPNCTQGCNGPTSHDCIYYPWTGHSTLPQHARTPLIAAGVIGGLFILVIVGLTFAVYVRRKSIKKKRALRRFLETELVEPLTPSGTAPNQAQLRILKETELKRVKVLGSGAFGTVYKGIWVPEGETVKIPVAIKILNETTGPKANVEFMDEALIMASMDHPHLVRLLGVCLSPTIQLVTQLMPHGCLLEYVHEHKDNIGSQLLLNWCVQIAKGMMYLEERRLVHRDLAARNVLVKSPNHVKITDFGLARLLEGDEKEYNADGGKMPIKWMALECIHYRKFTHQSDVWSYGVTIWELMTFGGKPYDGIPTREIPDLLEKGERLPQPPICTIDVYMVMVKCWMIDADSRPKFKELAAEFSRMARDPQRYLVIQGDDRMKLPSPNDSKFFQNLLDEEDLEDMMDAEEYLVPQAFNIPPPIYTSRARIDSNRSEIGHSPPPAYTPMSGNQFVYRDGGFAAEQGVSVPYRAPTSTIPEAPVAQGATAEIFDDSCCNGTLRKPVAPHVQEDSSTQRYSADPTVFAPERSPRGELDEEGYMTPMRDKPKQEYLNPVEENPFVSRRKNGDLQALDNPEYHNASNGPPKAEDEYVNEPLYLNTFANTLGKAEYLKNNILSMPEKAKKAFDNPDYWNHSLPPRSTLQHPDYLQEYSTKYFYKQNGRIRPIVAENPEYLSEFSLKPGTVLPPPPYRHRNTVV

For `Oc1ncnc2c1c(-c1ccccc1)cn2-c1ccccc1` [F1386-0303, 5,7-diphenyl-7H-pyrrolo[2,3-d]pyrimidin-4-ol], the remaining activity at 1 µM in assay [1] is 82%; in assay [2], 79%; in assay [3], 86%; in assay [4] it was 99%; in assay [5], 132%; in assay [6], 97%. Moreover, the remaining activity at 1 µM in assay [7] was determined as 108%.
For the compound `O=C1Cc2c([nH]c3ccc(Br)cc23)-c2ccccc2N1` [Kenpaullone], the remaining activity at 1 µM came out at 85% in assay [1]; 96% in assay [2]; 94% in assay [3]; 95% in assay [4]; 62% in assay [5]; 90% in assay [6]. Further, in assay [7], the remaining activity at 1 µM is 105%.
Regarding `COCCOc1ccc(-c2cn(-c3ccccc3)c3nc[nH]c(=O)c23)cc1` [DMX-5804, 5-[4-(2-methoxy-ethoxy)-phenyl]-7-phenyl-3,7-dihydro-pyrrolo[2,3-d]pyrimidin-4-one], the remaining activity at 1 µM in assay [1] came out at 106%; in assay [2] it was 93%; in assay [3], 108%; in assay [4], 108%; in assay [5], 104%; in assay [6], 48%. In assay [7], the remaining activity at 1 µM was 121%.
`O=C1Nc2ccc(I)cc2/C1=C/c1cc(Br)c(O)c(Br)c1` [GW5074]: the remaining activity at 1 µM in assay [1] came to 68%; in assay [2] it was 29%; in assay [3], 94%; in assay [4], 83%; in assay [5], 56%; in assay [6], 83%. In addition, in assay [7], the remaining activity at 1 µM was found to be 88%.
Turning to `Nc1ncc(C(=O)NC2CN(C(=O)C3CC3)C2)c2ccc(-c3cccc(F)c3)nc12` [GNE-495], the residual activity (usually the signal under treatment as a percentage of the control signal) in assay [1] (1 μM) is reported as 98%; in assay [2] (1 μM), 94%; in assay [3] (1 μM), 99%; in assay [4] (1 μM), 116%; in assay [5] (1 μM), 82%; in assay [6] (1 μM), 104%. The residual activity in assay [7] (1 μM) stood at 82%.
